Experimental findings from ChEMBL document CHEMBL5543160, “Psychoplastogenic DYRK1A Inhibitors with Therapeutic Effects Relevant to Alzheimer's Disease” (J Med Chem, 2024) are described below.

Active and inactive are the calls of the source. The calls are words filed in the database; no cut-off is given here.

Data set [1] addresses 5-hydroxytryptamine receptor 2A (Homo sapiens) (UniProt P28223). Kind of data set: Antagonist activity at 5-HT2AR (unknown origin) in human PSYLI2 cells assessed as decrease in fluorescence at 10 uM pretreated with 5-HT for 10 mins followed by compound addition and measured after 5 mins by PsychLight2 assay. It counts as functional, cell-based. Particulars: PSYLI2 cell, filed as antagonist.

The target is the same in data set [2]. Kind of data set: Agonist activity at 5-HT2AR (unknown origin) in human PSYLI2 cells assessed as increase in biosensor activation at 10 uM incubated for 5 mins by PsychLight2 assay. In kind it is functional, cell-based. Particulars: PSYLI2 cell.
Data set [3] concerns the target Dual specificity tyrosine-phosphorylation-regulated kinase 1A (Homo sapiens, UniProt Q13627).
In data set [4] the target is Microtubule-associated protein tau (Rattus norvegicus) (UniProt P19332). Kind of data set: Inhibition of okadaic acid-induced Tau hyperphosphorylation Ser202/Thr205 residues in Sprague-Dawley rat cortical neuron at 1 to 50 uM preincubated with compound for 24 hrs followed by okadaic acid addition and measured after 1 hrs by fluorescence based immunohistochemistry analysis. It counts as cell-based. Particulars: dose 1-50 µM.

Data set [5] has as its system Cortical neurone. Kind of data set: Psychoplastogenic effect in Sprague-Dawley rat cortical neuron assessed as increase in dendritic spine density at 10 uM incubated for 24 hrs by spinogenesis based confocal microscopic analysis. It counts as functional, cell-based.
Data set [6] deals with Cortical neurone. Kind of data set: Induction of neurite outgrowth in Wistar rat Primary cortical neurons assessed as increase in neurite branching incubated for 72 hrs by imaging analysis. In kind it is functional, cell-based. Particulars: dose 0.3-10 µM.
Data set [7] deals with Cortical neurone. The data set is described as follows: Induction of neurite outgrowth in Wistar rat Primary cortical neurons assessed as increase in neurite length incubated for 72 hrs by imaging analysis. It counts as functional, cell-based. Particulars: dose 0.3-10 µM.
Data set [8] addresses Microtubule-associated protein tau (Rattus norvegicus) (UniProt P19332). The data set is described as follows: Inhibition of okadaic acid-induced Tau hyperphosphorylation Ser202/Thr205 residues in Sprague-Dawley rat cortical neuron at 50 uM preincubated with compound for 24 hrs followed by okadaic acid addition and measured after 1 hrs by fluorescence based immunohistochemistry analysis. It counts as cell-based.

Data set [9] has as its system Mus musculus. The data set is described as follows: Antipsychotic activity in C57BL/6J mouse assessed as reduction in 5-MeO-DMT-induced head-twitch response at 30 mg/kg, ip pretreated with compound for 10 mins followed by 5-MeO-DMT addition and measured after 20 mins. It counts as functional, organism-based. The following applies: time 30.0 min.
Data set [10] can be described thus: Toxicity in C57BL/6J mouse assessed as induction of head-twitch response upto 30 mg/kg, ip measured for 10 mins. It counts as organism-based. Particulars: in vivo.
Data set [11] is described as follows: Toxicity in C57BL/6J mouse assessed as effect on locomotion upto 30 mg/kg, ip measured for 10 mins. The following applies: in vivo. In kind it is organism-based.
Data set [12] addresses Phosphatidylinositol 4,5-bisphosphate 3-kinase catalytic subunit gamma isoform (Homo sapiens) (UniProt P48736). The data set is described as follows: Inhibition of PIK3CG (unknown origin) at 10 uM by DiscoverX KINOMEscan assay.
Data set [13] concerns the target Casein kinase I (Homo sapiens) (UniProt Q9HCP0+P78368+P48730+P49674+P48729). The data set is described as follows: Inhibition of CK1 (unknown origin) at 10 uM by DiscoverX KINOMEscan assay. In kind it is protein assay.
Data set [14] has as its target Cyclin-dependent kinase 7 (Homo sapiens) (UniProt P50613). The data set is described as follows: Inhibition of CDK7 (unknown origin) at 10 uM by DiscoverX KINOMEscan assay.
For data set [15], the species on record is Homo sapiens. Kind of data set: Inhibition of CAMK (unknown origin) at 10 uM by DiscoverX KINOMEscan assay.

Sequence of Microtubule-associated protein tau (Rattus norvegicus) (P19332 whole entry): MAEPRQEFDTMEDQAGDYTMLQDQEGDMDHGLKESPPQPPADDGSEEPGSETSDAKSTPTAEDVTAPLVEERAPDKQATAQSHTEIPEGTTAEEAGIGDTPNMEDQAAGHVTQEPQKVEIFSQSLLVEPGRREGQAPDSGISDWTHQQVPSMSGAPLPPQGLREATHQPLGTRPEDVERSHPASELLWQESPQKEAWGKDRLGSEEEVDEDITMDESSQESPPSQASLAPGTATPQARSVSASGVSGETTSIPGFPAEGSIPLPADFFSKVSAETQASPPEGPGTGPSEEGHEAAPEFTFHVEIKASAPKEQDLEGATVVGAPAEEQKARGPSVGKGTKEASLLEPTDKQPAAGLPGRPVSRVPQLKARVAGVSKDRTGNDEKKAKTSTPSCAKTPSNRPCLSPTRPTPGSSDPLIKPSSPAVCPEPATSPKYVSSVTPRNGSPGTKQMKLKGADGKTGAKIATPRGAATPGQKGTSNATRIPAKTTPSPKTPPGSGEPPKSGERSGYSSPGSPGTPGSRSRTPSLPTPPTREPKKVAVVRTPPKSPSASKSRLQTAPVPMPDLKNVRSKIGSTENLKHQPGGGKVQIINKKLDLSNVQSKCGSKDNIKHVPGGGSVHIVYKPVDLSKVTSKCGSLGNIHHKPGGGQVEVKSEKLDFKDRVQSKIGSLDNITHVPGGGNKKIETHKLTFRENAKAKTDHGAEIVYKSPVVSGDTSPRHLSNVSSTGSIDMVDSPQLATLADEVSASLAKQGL
Sequence of 5-hydroxytryptamine receptor 2A (Homo sapiens) (P28223 whole entry): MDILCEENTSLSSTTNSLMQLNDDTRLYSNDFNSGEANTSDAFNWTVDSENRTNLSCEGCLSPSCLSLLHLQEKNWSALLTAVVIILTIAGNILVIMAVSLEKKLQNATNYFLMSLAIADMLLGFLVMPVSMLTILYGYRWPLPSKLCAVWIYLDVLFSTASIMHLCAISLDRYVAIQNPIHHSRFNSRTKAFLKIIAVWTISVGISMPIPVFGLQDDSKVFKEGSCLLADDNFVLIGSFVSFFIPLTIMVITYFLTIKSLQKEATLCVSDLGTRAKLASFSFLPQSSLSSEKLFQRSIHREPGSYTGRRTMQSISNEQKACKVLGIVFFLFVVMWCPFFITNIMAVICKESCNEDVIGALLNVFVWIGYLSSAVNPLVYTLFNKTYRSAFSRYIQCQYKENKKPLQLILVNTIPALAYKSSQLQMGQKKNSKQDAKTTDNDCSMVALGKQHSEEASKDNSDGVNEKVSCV
Sequence of Cyclin-dependent kinase 7 (Homo sapiens) (P50613 whole entry): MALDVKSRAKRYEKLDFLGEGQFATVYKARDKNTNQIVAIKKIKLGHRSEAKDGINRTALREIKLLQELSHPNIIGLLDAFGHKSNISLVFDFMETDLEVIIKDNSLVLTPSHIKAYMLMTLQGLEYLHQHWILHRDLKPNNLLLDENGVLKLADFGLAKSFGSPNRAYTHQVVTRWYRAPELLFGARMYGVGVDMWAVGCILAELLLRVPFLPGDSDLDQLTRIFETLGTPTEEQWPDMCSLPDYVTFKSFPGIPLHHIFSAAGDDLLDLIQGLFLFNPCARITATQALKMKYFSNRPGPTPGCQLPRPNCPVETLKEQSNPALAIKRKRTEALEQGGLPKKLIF
Sequence of Phosphatidylinositol 4,5-bisphosphate 3-kinase catalytic subunit gamma isoform (Homo sapiens) (P48736 whole entry, looked up, canonical isoform): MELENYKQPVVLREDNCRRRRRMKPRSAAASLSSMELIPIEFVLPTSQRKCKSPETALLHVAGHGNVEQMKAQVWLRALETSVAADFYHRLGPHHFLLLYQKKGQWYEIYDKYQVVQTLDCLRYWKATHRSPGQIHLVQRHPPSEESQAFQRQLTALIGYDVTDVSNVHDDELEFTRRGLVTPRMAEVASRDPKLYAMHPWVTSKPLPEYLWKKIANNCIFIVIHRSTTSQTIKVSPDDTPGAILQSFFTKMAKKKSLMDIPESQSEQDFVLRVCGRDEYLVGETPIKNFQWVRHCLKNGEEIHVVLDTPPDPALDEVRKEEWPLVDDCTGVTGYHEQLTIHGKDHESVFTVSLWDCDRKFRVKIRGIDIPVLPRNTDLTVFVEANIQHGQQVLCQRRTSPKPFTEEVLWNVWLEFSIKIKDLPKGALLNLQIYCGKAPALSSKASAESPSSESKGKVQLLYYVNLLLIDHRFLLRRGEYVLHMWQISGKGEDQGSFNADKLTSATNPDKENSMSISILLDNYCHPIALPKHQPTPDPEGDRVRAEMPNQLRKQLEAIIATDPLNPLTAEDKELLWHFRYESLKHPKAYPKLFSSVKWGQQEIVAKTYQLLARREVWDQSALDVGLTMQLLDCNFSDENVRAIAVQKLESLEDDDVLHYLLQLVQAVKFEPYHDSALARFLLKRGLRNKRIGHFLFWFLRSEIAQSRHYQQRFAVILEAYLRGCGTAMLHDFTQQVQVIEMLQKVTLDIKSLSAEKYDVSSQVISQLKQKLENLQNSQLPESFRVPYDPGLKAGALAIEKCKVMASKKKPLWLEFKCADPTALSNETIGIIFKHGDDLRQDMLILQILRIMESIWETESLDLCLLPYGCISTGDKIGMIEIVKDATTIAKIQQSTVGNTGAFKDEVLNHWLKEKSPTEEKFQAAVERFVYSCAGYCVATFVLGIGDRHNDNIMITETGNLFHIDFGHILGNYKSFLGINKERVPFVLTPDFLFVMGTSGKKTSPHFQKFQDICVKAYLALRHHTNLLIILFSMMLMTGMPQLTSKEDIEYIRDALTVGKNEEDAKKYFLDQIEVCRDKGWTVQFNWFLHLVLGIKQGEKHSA

Regarding `COc1ccc2c(c1)S/C(=C\C(C)=O)N2CCN(C)C`, the outcome in [1] was Active. The result in data set [2] was inactive.

Regarding `Cc1nccc2c3ccccc3n(CCN(C)C)c12`, in data set [3], the 50% inhibitory concentration (IC50) was > 10 µM. In addition, the outcome in data set [1] was Active. Moreover, in [2], the outcome was inactive.

Turning to `CN(C)CCc1c[nH]c2ccccc12`, the inhibition result in data set [4] is “inactive”. In addition, the outcome in data set [5] was Active.

Turning to `COc1ccc2c(c1)N(CCN(C)C)/C(=C/C(C)=O)S2`, half-maximal inhibition in [3] (IC50) was put at 0.561 µM. In data set [4], the inhibition entry is “inactive”. Further, the Activity entry in data set [6] and in [7] was “Dose-Dependent Effect” each time.

As for `NCCc1c[nH]c2ccc(O)cc12`, in data set [2] (filed as agonist), the outcome was Active.

`COc1ccc2c3ccnc(C)c3n(CCN(C)C)c2c1.O=C(O)/C=C/C(=O)O` returned an IC50 in [3] of 0.209 µM. In addition, in data set [8], the inhibition result is “Active”. Moreover, the result in data set [5] and in [9] was Active. The Activity entry in data set [6] is “Dose-Dependent Effect”; in [10], “Non-Toxic”; in [11], “Non-Toxic”; in data set [7], “Dose-Dependent Effect”.

Consider `CC(=O)/C=C1\Sc2ccccc2N1CCN(C)C`, for which the result in data set [1] was Active. Moreover, the result in data set [2] was inactive.

On to `COc1ccc2c(c1)c1ccnc(C)c1n2CCN(C)C`, for which the IC50 in [3] is > 10 µM. For the same compound, the result in data set [1] was Active. For the same compound, in [2], the outcome was inactive.

For the compound `COc1ccc2c(c1)[nH]c1c(C)nccc12`, the inhibition entry in data set [12], in [4], in data set [13], in [14] and in [15] was “Active” in each case. The outcome in data set [5] was inactive.
